In patent US20240025849A1 (MAX DELBRÜCK-CENTRUM FÜR MOLEKULARE MEDIZIN IN DER …, priority 2020, published 2024):
Like-named read-outs stand apart in the source and are kept apart here.

System: primary cultured neonatal microglia
Experiment: LPS induced NO release, Griess assay, laboratory scaled setup;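 on active: compounds at or above the IC50 cutoff were called inactive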
Type: cell-based, mouse
Settings: for IC50: Mus musculus, Microglia
Experimental: Primary cultured neonatal microglia. For preparation of cultured neonatal microglia, P0-P3 mice were used. 10 brains were extracted, meninges and cerebellum were removed and put on ice with Hank's balanced salt solution (HBSS). The dissected brains were washed 3 times before adding 400 μL trypsin (0.1 mg/L) and DNAse (5 μg/L) in phosphate buffered saline (PBS). After 2 min of incubation with this solution, the reaction was blocked by adding plain medium. After removal of the medium, 1 mg DNAse was added and the cells were mechanically dissociated, with a Pasteur pipette followed by a glass pipette. The cells were centrifuged for 10 min at 129 g at 4° C. The supernatant was discarded. The pellet was resuspended in plain medium and plated (2.5 brains/flask) in Poly-L-Lysine coated flasks. The cells were washed after 2 days with PBS and incubated for another 7 days in plain medium. Afterwards the medium was replaced by plain medium with 33% L929 conditioned medium. After 2 days, cells were harvested by shaking them for 30 min at 150 rpm. The supernatant was centrifuged for 10 min at 129 g at 4° C. The cells were plated into a 96 well plate (100 000 cells/well, 200 μL medium per well). This procedure could be repeated 2 times with a 2 day interval.
Griess assay. Cells were seeded according to the protocols described above, after compounds and stimuli were added, 100 μl of supernatant was transferred into a new 96 well plate and 100 μl freshly mixed Griess reagent were added. Griess reagent was composed of reagent A (100 mg Naphthylethylene in 50 ml aqua dest.) and reagent B (1 g Sulfanilamide, […] H3PO4 (85%) in 44 mL aqua dest.) mixed 1:1. The solution was carefully mixed and the absorbance was determined in a microplate reader at a wavelength of 550 nm.
Dissolved sodium nitrite in plain medium served as a standard. Total amount of nitrite was calculated by a linear regression of the standard curve.
The activity of the compounds listed in column 1 of Table 1 as inhibitors of NO production was compared in murine primary cultured neonatal microglia as described above.

[1] = inhibitors of NO production, murine primary cultured neonatal microglia, read-out: IC50
[2] = inhibitors of NO production, murine primary cultured neonatal microglia, read-out: activity class (IC50)
[3] = inhibitors of NO production, murine primary cultured neonatal microglia
[4] = inhibitors of NO production, murine primary cultured neonatal microglia, read-out: active

| Compound | IC50 [1] | IC50 [2] | active [3] | IC50 [4] | inhibitory effect in the NO release assay (FIG. 9) | IC50 (0.002 to 20 μM, FIG. 9, read-out: IC50, LPS induced NO production (stereoisomers)) |
| --- | --- | --- | --- | --- | --- | --- |
| COc1ccc(NC(=O)[C@@H](NC(=O)[C@@H]2CCCN2C(=O)CCC(C)C)c2ccc(OC)cc2)cc1 [Compound 20, (S)—N—((S)-1-(4-methoxyphenyl)-2-((4-methoxyphenyl)amino)-2-oxoethyl)-1-(4-methylpentanoyl)pyrrolidine-2-carboxamide] | 203 nM | < 1000 nM | YES | – | – | – |
| COc1ccc([C@H](NC(=O)[C@@H]2CCCN2C(=O)OCc2ccccc2)C(=O)Nc2ccc3c(c2)n(C)c(=O)n3C)cc1 [Compound 42, benzyl (S)-2-(((S)-2-((1,3-dimethyl-2-oxo-2,3-dihydro-1H-benzo[d]imidazol-5-yl)amino)-1-(4-methoxyphenyl)-2-oxoethyl)carbamoyl)pyrrolidine-1-carboxylate] | – | – | – | ≥ 10000 nM | – | – |
| COc1ccc(NC(=O)[C@@H](NC(=O)[C@@H]2CCCN2C(=O)CCc2ccccc2)c2ccc(OC)cc2)cc1 [Compound 13] | 151 nM | < 200 nM | YES | – | – | – |
| COc1ccc([C@H](NC(=O)[C@@H]2CCCN2C(=O)OCc2ccccc2)C(=O)Nc2cccc3c2ccn3C)cc1 [Compound 41, benzyl (S)-2-(((S)-1-(4-methoxyphenyl)-2-((1-methyl-1H-indol-4-yl)amino)-2-oxoethyl)carbamoyl)pyrrolidine-1-carboxylate] | – | – | – | ≥ 10000 nM | – | – |
| COc1ccc([C@H](NC(=O)[C@@H]2CCCN2C(=O)OCc2ccccc2)C(=O)Nc2ccc3nncn3c2)cc1 [Compound 48] | – | – | – | ≥ 10000 nM | – | – |
| COc1ccc(NC(=O)[C@@H](NC(=O)[C@@H]2CCCN2C(=O)OCc2ccccc2)c2ccccc2)cc1 [Compound 17, benzyl (S)-2-(((S)-2-((4-methoxyphenyl)amino)-2-oxo-1-phenylethyl)carbamoyl)pyrrolidine-1-carboxylate] | 122 nM | < 200 nM | YES | – | – | – |
| COc1ccc(NC(=O)[C@@H](NC(=O)[C@@H]2CCCN2C(=O)CCc2ccccn2)c2ccc(OC)cc2)cc1 [Compound 25, (S)—N—((S)-1-(4-methoxyphenyl)-2-((4-methoxyphenyl)amino)-2-oxoethyl)-1-(3-(pyridin-2-yl)propanoyl)pyrrolidine-2-carboxamide] | 6880 nM | < 10000 nM | YES | – | – | – |
| COc1ccc(NC(=O)[C@@H](NC(=O)[C@@H]2CCCN2C(=O)OCc2ccccc2)c2ccc(OCCOCCOCCOCCOCCOCCNC(=O)CCCC[C@@H]3SC[C@@H]4NC(=O)N[C@@H]43)cc2)cc1 [Compound 29, benzyl (S)-2-(((S)-2-((4-methoxyphenyl)amino)-2-oxo-1-(4-((19-oxo-23-((3aS,4S,6aR)-2-oxohexahydro-1H-thieno[3,4-d]imidazol-4-yl)-3,6,9,12,15-pentaoxa-18-azatricosyl)oxy)phenyl)ethyl)carbamoyl)pyrrolidine-1-carboxylate] | 2360 nM | < 10000 nM | YES | – | – | – |
| COc1ccc(NC(=O)[C@@H](NC(=O)[C@@H]2CCCN2C(=O)CCc2cn(C)c3ccccc23)c2ccc(OC)cc2)cc1 [Compound 21, (S)—N—((S)-1-(4-methoxyphenyl)-2-((4-methoxyphenyl)amino)-2-oxoethyl)-1-(3-(1-methyl-1H-indol-3-yl)propanoyl)pyrrolidine-2-carboxamide] | 259 nM | < 1000 nM | YES | – | – | – |
| COc1ccc([C@H](NC(=O)[C@@H]2CCCN2C(=O)OCc2ccccc2)C(=O)Nc2cnn(C)c2)cc1 [Compound 40, benzyl (S)-2-(((S)-1-(4-methoxyphenyl)-2-((1-methyl-1H-pyrazol-4-yl)amino)-2-oxoethyl)carbamoyl)pyrrolidine-1-carboxylate] | – | – | – | ≥ 10000 nM | – | – |
| COc1ccc(NC(=O)[C@@H](NC(=O)[C@@H]2CCCN2C(=O)CCCC2CCCCC2)c2ccc(OC)cc2)cc1 [Compound 7] | 44.9 nM | < 50 nM | YES | – | – | – |
| COc1ccc([C@H](NC(=O)[C@@H]2CCCN2C(=O)OCc2ccccc2)C(=O)Nc2cccnc2)cc1 [Compound 49] | – | – | – | ≥ 10000 nM | – | – |
| COc1ccc([C@H](NC(=O)[C@@H]2CCCN2C(=O)OCc2ccccc2)C(=O)Nc2ccc3c(c2)CCO3)cc1 [Compound 22, benzyl-(S)-2-(((S)-2-((2,3-dihydrobenzofuran-5-yl)amino)-1-(4-methoxyphenyl)-2-oxoethyl)carbamoyl)pyrrolidine-1-carboxylate] | 231 nM | < 1000 nM | YES | – | – | – |
| COc1ccc(NC(=O)[C@@H](NC(=O)[C@@H]2C[C@@H](O)CN2C(=O)CCC2CCCCC2)c2ccc(OC)cc2)cc1 [Compound 53, (2S,4R)-1-(3-cyclohexylpropanoyl)-4-hydroxy-N—((S)-1-(4-methoxyphenyl)-2-((4-methoxyphenyl)amino)-2-oxoethyl)pyrrolidine-2-carboxamide] | – | < 1000 nM | YES | – | – | – |
| COc1ccc(NC(=O)[C@@H](NC(=O)[C@@H]2CCCN2C(=O)COc2ccccc2)c2ccc(OC)cc2)cc1 [Compound 11, (S)—N—((S)-1-(4-methoxyphenyl)-2-((4-methoxyphenyl)amino)-2-oxoethyl)-1-(2-phenoxyacetyl)pyrrolidine-2-carboxamide] | 71.7 nM | < 100 nM | YES | – | – | – |
| COc1ccc(NC(=O)[C@@H](NC(=O)[C@@H]2C[C@@H]3CCCC[C@@H]3N2C(=O)OCc2ccccc2)c2ccc(OC)cc2)cc1 [Compound 31, benzyl(2S,3aS,7aS)-2-(((S)-1-(4-methoxyphenyl)-2-((4-methoxyphenyl)amino)-2-oxoethyl)carbamoyl)octahydro-1H-indole-1-carboxylate] | – | < 10000 nM | YES | – | – | – |
| COc1ccc(NC(=O)[C@@H](NC(=O)[C@@H]2CCCN2C(=O)CCCCCNC(=O)CCCC[C@@H]2SC[C@@H]3NC(=O)N[C@@H]32)c2ccc(OC)cc2)cc1 [Compound 45] | – | – | – | ≥ 10000 nM | – | – |
| COc1ccc(NC(=O)[C@@H](NC(=O)[C@@H]2CCCN2C(=O)CCc2ccc(F)cc2)c2ccc(OC)cc2)cc1 [Compound 9, (S)-1-(3-(4-fluorophenyl)propanoyl)-N—((S)-1-(4-methoxyphenyl)-2-((4-methoxyphenyl)amino)-2-oxoethyl)pyrrolidine-2-carboxamide] | 54.8 nM | < 100 nM | YES | – | – | – |
| COc1ccc(NC(=O)[C@@H](NC(=O)[C@@H]2Cc3ccccc3CN2C(=O)OCc2ccccc2)c2ccc(OC)cc2)cc1 [Compound 32, benzyl (S)-3-(((S)-1-(4-methoxyphenyl)-2-((4-methoxyphenyl)amino)-2-oxoethyl)carbamoyl)-3,4-dihydroisoquinoline-2(1H)-carboxylate] | – | < 10000 nM | YES | – | – | – |
| COc1ccc(NC(=O)[C@@H](NC(=O)[C@]2(C)CCCN2C(=O)OCc2ccccc2)c2ccc(OC)cc2)cc1 [Compound 33, benzyl (S)-2-(((S)-1-(4-methoxyphenyl)-2-((4-methoxyphenyl)amino)-2-oxoethyl)carbamoyl)-2-methylpyrrolidine-1-carboxylate] | – | < 200 nM | YES | – | – | – |
| COc1ccc(NC(=O)[C@H](NC(=O)[C@@H]2CCCN2C(=O)OCc2ccccc2)c2ccc(OC)cc2)cc1 [Compound 50, benzyl-(S)-2-(((R)-1-(4-methoxyphenyl)-2-((4-methoxyphenyl)amino)-2-oxoethyl)carbamoyl)-pyrrolidine-1-carboxylate] | – | – | – | ≥ 10000 nM | not | 40000 nM |
